Measured values from US20260285850A1, “SUBSTITUTED OXAZOLIDINONES AND IMIDAZOLINONES AS HERBICIDES” (FMC CORPORATION, priority 2023, published 2026).

Tests used:
Assay type in all cases: in vivo
[1] = system: barnyardgrass (Echinochloa crus-galli); assay: Test A preemergence soil spray, visual injury rating 0-100; conditions: 10 days
Source text: (§1) Seeds of plant species selected from barnyardgrass (Echinochloa crus-galli), blackgrass (Alopecurus myosuroides), corn (Zea mays), foxtail, giant (giant foxtail, Setaria faberi), green foxtail (Setaria viridis), goosegrass (Eleusine indica), kochia (Bassia scoparia), oat, wild (wild oat, Avena fatua), palmer (palmer amaranth, palmer pigweed, Amaranthus palmeri), ragweed (common ragweed, Ambrosia artemisiifolia), ryegrass, Italian (italian ryegrass, Lolium multiflorum), soybean (Glycine max) and wheat (Triticum aestivum) were planted into a blend of loam soil and sand and treated preemergence with a directed soil spray using test chemicals formulated in a non-phytotoxic solvent mixture which included a surfactant.
(§2) At the same time, plants selected from these crops and weed species and also galium (catchweed bedstraw, Galium aparine) and horseweed (Erigeron canadensis) were planted in pots containing the same blend of loam soil and sand and treated with postemergence applications of test chemicals formulated in the same manner. Plants ranged in height from 2 to 10 cm and were in the one- to two-leaf stage for the postemergence treatment. Treated plants and untreated controls were maintained in a greenhouse for 10 days, after which time all treated plants were compared to untreated controls and visually evaluated for injury. Plant response ratings, summarized in Table A, are based on a 0 to 100 scale where 0 is no effect and 100 is complete control. A dash (-) response means no test result.

[2] = system: blackgrass (Alopecurus myosuroides); assay: as above; conditions: 10 days
Source text: as §1, §2

[3] = system: corn (Zea mays); assay: as above; conditions: 10 days
Source text: as §1, §2

[4] = system: green foxtail (Setaria viridis); assay: as above; conditions: 10 days
Source text: as §1, §2

[5] = system: kochia (Bassia scoparia); assay: as above; conditions: 10 days
Source text: as §1, §2

[6] = system: oat, wild (wild oat, Avena fatua); assay: as above; conditions: 10 days
Source text: as §1, §2

[7] = system: palmer (palmer amaranth, palmer pigweed, Amaranthus palmeri); assay: as above; conditions: 10 days
Source text: as §1, §2

[8] = system: ragweed (common ragweed, Ambrosia artemisiifolia); assay: as above; conditions: 10 days
Source text: as §1, §2

[9] = system: ryegrass, Italian (italian ryegrass, Lolium multiflorum); assay: as above; conditions: 10 days
Source text: as §1, §2

[10] = system: soybean (Glycine max); assay: as above; conditions: 10 days
Source text: as §1, §2

[11] = system: wheat (Triticum aestivum); assay: as above; conditions: 10 days
Source text: as §1, §2

[12] = system: barnyardgrass (Echinochloa crus-galli); assay: Test A postemergence application, visual injury rating 0-100
Source text: as §1, §2

[13] = system: blackgrass (Alopecurus myosuroides); assay: as above
Source text: as §1, §2

[14] = system: corn (Zea mays); assay: as above
Source text: as §1, §2

[15] = system: green foxtail (Setaria viridis); assay: as above
Source text: as §1, §2

[16] = system: horseweed (Erigeron canadensis); assay: as above
Source text: as §1, §2

[17] = system: kochia (Bassia scoparia); assay: as above
Source text: as §1, §2

[18] = system: oat, wild (wild oat, Avena fatua); assay: as above
Source text: as §1, §2

[19] = system: palmer (palmer amaranth, palmer pigweed, Amaranthus palmeri); assay: as above
Source text: as §1, §2

[20] = system: ragweed (common ragweed, Ambrosia artemisiifolia); assay: as above
Source text: as §1, §2

[21] = system: ryegrass, Italian (italian ryegrass, Lolium multiflorum); assay: as above
Source text: as §1, §2

[22] = system: soybean (Glycine max); assay: as above
Source text: as §1, §2

[23] = system: wheat (Triticum aestivum); assay: as above
Source text: as §1, §2

[24] = system: barnyardgrass (Echinochloa crusgalli); assay: Test B flooded paddy test, visual plant response rating 0-100; conditions: 250 g ai/ha, Flood, applied to paddy water, evaluated after 13 days
Description: (§3) Plant species in the flooded paddy test selected from barnyardgrass (Echinochloa crusgalli), ducksalad (Heteranthera limosa), rice (Oryza sativa), and sedge, umbrella (small-flower umbrella sedge, Cyperus difformis) were grown to the 2-leaf stage for testing. At time of treatment, test pots were flooded to 3 cm above the soil surface, treated by application of test compounds directly to the paddy water, and then maintained at that water depth for the duration of the test. Treated plants and controls were maintained in a greenhouse for 13 days, after which time all species were compared to controls and visually evaluated. […] A dash (-) response means no test result.

[25] = system: ducksalad (Heteranthera limosa); assay: as above; conditions: 250 g ai/ha, Flood, applied to paddy water, evaluated after 13 days
Description: as §3

[26] = system: rice (Oryza sativa); assay: as above; conditions: 250 g ai/ha, Flood, applied to paddy water, evaluated after 13 days
Description: as §3

[27] = system: sedge, umbrella (small-flower umbrella sedge, Cyperus difformis); assay: as above; conditions: 250 g ai/ha, Flood, applied to paddy water, evaluated after 13 days
Description: as §3

[28] = 62 g ai/ha, 0 = no effect, 100 = complete control
[29] = 62 g ai/ha, postemergence, 10 days, 0 = no effect, 100 = complete control
[30] = Postemergence, 16 g ai/ha, greenhouse 10 days, 0 no effect, 100 complete control

CC1(C(=O)NC2C=CC(C(=O)NO)C2)CN(c2cc(F)cc(F)c2)C(=O)O1 (centres unmarked) [Compound 137]
Barnyardgrass plant response rating ([1]; 16 g ai/ha, 0 to 100 scale): 0
Barnyardgrass plant response rating (0-100) [1, 28]: 60
Blackgrass plant response rating ([2]; 16 g ai/ha, 0 to 100 scale): 0
Blackgrass plant response rating (0-100) [2, 28]: 50
Corn plant response rating ([3]; 16 g ai/ha, 0 to 100 scale): 0
Corn plant response rating (0-100) [3, 28]: 10
Foxtail, Green plant response rating ([4]; 16 g ai/ha, 0 to 100 scale): 0
Foxtail, Green plant response rating (0-100) [4, 28]: 30
Kochia plant response rating ([5]; 16 g ai/ha, 0 to 100 scale): 0
Kochia plant response rating (0-100) [5, 28]: 90
Oat, Wild plant response rating ([6]; 16 g ai/ha, 0 to 100 scale): 0
Oat, Wild plant response rating (0-100) [6, 28]: 30
Pigweed, Palmer plant response rating ([7]; 16 g ai/ha, 0 to 100 scale): 20
Pigweed, Palmer plant response rating (0-100) [7, 28]: 70
Ragweed plant response rating ([8]; 16 g ai/ha, 0 to 100 scale): 0
Ragweed plant response rating (0-100) [8, 28]: 0
Ryegrass, Italian plant response rating ([9]; 16 g ai/ha, 0 to 100 scale): 30
Ryegrass, Italian plant response rating (0-100) [9, 28]: 60
Soybean plant response rating ([10]; 16 g ai/ha, 0 to 100 scale): 0
Soybean plant response rating (0-100) [10, 28]: 50
Wheat plant response rating ([11]; 16 g ai/ha, 0 to 100 scale): 20
Wheat plant response rating (0-100) [11, 28]: 90
Barnyardgrass plant response rating (0-100) [12, 29]: 70
Barnyardgrass plant response rating (0 to 100 scale) [12, 30]: 0
Blackgrass plant response rating (0-100) [13, 29]: 60
Blackgrass plant response rating (0 to 100 scale) [13, 30]: 0
Corn plant response rating (0-100) [14, 29]: 50
Corn plant response rating (0 to 100 scale) [14, 30]: 10
Foxtail, Green plant response rating (0-100) [15, 29]: 10
Foxtail, Green plant response rating (0 to 100 scale) [15, 30]: 0
Horseweed plant response rating (0-100) [16, 29]: 50
Horseweed plant response rating (0 to 100 scale) [16, 30]: 0
Kochia plant response rating (0-100) [17, 29]: 50
Kochia plant response rating (0 to 100 scale) [17, 30]: 0
Oat, Wild plant response rating (0-100) [18, 29]: 30
Oat, Wild plant response rating (0 to 100 scale) [18, 30]: 0
Pigweed, Palmer plant response rating (0-100) [19, 29]: 30
Pigweed, Palmer plant response rating (0 to 100 scale) [19, 30]: 0
Ragweed plant response rating (0-100) [20, 29]: 0
Ragweed plant response rating (0 to 100 scale) [20, 30]: 0
Ryegrass, Italian plant response rating (0-100) [21, 29]: 30
Ryegrass, Italian plant response rating (0 to 100 scale) [21, 30]: 0
Soybean plant response rating (0-100) [22, 29]: 60
Soybean plant response rating (0 to 100 scale) [22, 30]: 0
Wheat plant response rating (0-100) [23, 29]: 70
Wheat plant response rating (0 to 100 scale) [23, 30]: 0
Plant response rating, Barnyardgrass (0 to 100 scale, 0 is no effect and 100 is complete control) [24]: 0
Plant response rating, Ducksalad (0 to 100 scale, 0 is no effect and 100 is complete control) [25]: 0
Plant response rating, Rice (0 to 100 scale, 0 is no effect and 100 is complete control) [26]: 0
Plant response rating, Sedge, Umbrella (0 to 100 scale, 0 is no effect and 100 is complete control) [27]: 0
